What was measured:
Format in all cases: cell-based, human
[1] = test system: A-549, H226, and H460 cells; assay: Cell cycle distribution by flow cytometry, unsynchronized cells; settings: IC90, 24 h, vs control
Procedure: Promising antiproliferative properties of PCH-1 led us to further investigate the effect of this compound on cell cycle distribution. Therefore, cell cycle progression was analyzed by quantifying DNA content using flow cytometry. […] To thoroughly analyze the course of the cycle, A-549 cells were synchronized with a double-thymidine block in the G1 phase and treated with IC90 concentration of PCH-1 for the indicated time. Slight alterations of the division cycle were visible after 2 h of incubation with the compound.
Cells were seeded onto tissue culture plates and allowed to attach for 24 h. Unsynchronized cells were treated with PCH-1 or Etoposide at IC90 concentration for 24 and 48 h, while synchronized cells were treated with PCH-1 or Etoposide at IC90 concentration for 2, 4, 6, 8, and 10 h. Synchronization of the cells was performed as described previously by Chen et al.[77]. Next, the cells were trypsinized, fixed in ice-cold 75% ethanol, and stored overnight at − 20 °C. After centrifugation, the cells were rinsed with PBS and stained with […] PI (Sigma-Aldrich) and […] RNaseA (Thermo Fisher) in PBS for 30 min at RT. The distribution of the cells in different phases of the cell cycle was determined by flow cytometry (Guava EasyCyte 8 cell sorter, Merck Millipore) and FlowJo software v10. Each experiment was repeated independently three times.

A-549 cells [2] = assay: Wound healing migration assay
Procedure: To further confirm the antimigratory potential of PCH-1, the wound healing assay was performed on A-549 cells. […] This effect was retained during the entire exposure time, with the highest difference during 18–24 h compared to that in the control group. Finally, the anti-migratory properties of PCH-1 were studied by co-treatment A-549 cells with TGF-β1.
To analyze cell motility, A-549 cells were seeded onto the Ibidi-silicone insert on a cover glass-bottom 24-well plate for live cell imaging and incubated for 24 h. Subsequently, the inserts were dislodged, the cellular debris was removed by washing with RPMI, and the cells were incubated with different concentrations of PCH-1, and/or 2.5 ng/ml TGF-β1 (Sigma-Aldrich) in an imaging chamber (cellVivo incubation system, Olympus) at 37 °C with 5% CO2. Images were captured every 10 min for 20 or 42 h under × 10 magnification using a fluorescence microscope (IX83 Inverted Microscope, Olympus) connected to an XC50 digital color camera (Olympus). The percentage of wound closure was quantified with ImageJ software.

A-549 cells [3] = assay: Western blot of apoptotic and EMT-related proteins
Procedure: To investigate the potential molecular mechanisms responsible for PCH-1-induced apoptosis in A-549 cells, we measured the expression of apoptosis-related proteins by western blot analysis. […] Next, we determined the role of the antiapoptotic protein Bcl-2 as well as the proapoptotic proteins Bax and Bid in PCH-1-induced cell death in A-549 cells. […] Additionally, we observed Bid cleavage (48 h: *p < 0.01), which was noted as a reduction in full-length Bid protein.
Epithelial-mesenchymal transition (EMT) plays a crucial role in tumorigenesis by promoting cell motility, migration, and metastasis. Thus, we examined the expression of proteins involved in the EMT process by western blot assays. […] The activity of N-cadherin in A-549 cells was reduced by 45% at 24 h (p = 0.0002) and by 50% at 48 h (p = 0.0002), while vimentin activity was reduced by 43% at 24 h (p = 0.005) and by 46% at 48 h (p = 0.004). Additional PCH-1 inhibited Transforming Growth Factor β1 (TGF-β1) induced mesenchymal-like phenotype in A-549 cells, indicating […] of N-cadherin by 66% at 48 h (p = 0.0003), and another EMT effector β-catenin, which was suppressed by 31% at 24 h (p = 0.0275) and by 66% at 48 h (p = 0.0019).
Cells (1.5 × 10^6) were cultured in tissue culture plates for overnight attachment. The cells were then incubated with IC90 of PCH-1 or 1% DMSO for 6, 24, and 48 h, or were co-treatment with 2.5 ng/ml TGF-β1 (Sigma-Aldrich), and IC90 of PCH-1 or 1% DMSO for 24, and 48 h. Subsequently, the cells were collected and lysed in Laemmli buffer with a protease inhibitor cocktail (Roche) and phosphatase inhibitors [NaF (5 mM), β-glycerophosphate (5 mM), and Na3VO4 (1 mM)]. The cells were then sonicated in triplicate (10 s, 30% amplitude) and centrifuged at 16,000×g at 12 °C for 15 min. Protein concentrations were determined using the DC Protein Assay Kit (Bio-Rad). For determining total protein content, the cellular extract was separated by 10% or 12% sodium dodecyl sulfate–polyacrylamide gel electrophoresis (SDS-PAGE) and transferred onto a microporous polyvinylidene difluoride (PVDF) membrane (Bio-Rad). After blocking with 5% (w/v) BSA (Sigma-Aldrich) in 1 × TBST (pH 7.4 and 0.1% Tween-20) for 1 h, the membranes were incubated overnight with primary antibodies at 4 °C, followed by horseradish peroxidase-conjugated secondary antibodies for 1 h. All the used antibodies are listed in Table S1 in the supplementary information. The immunoreactive signals were detected using an enhanced chemiluminescence (ECL) detection reagent kit (Thermo Fisher) and a ChemiDoc XRS + Imaging System (Bio-Rad). The band intensity was measured using Image Lab 5.2 software (Bio-Rad).

[4] = A-549 co-treated with 2.5 ng/ml TGF-β1, IC90, 48 h

## COc1ccc(C2CC(c3cc4c(cc3OC)OCO4)=NN2C(C)=O)cc1 (stereo not shown) [PCH-1, 1-[3-(6-methoxy-2H-1,3-benzodioxol-5-yl)-5-(4-methoxyphenyl)-4,5-dihydro-1H-pyrazol-1-yl]ethan-1-one]
[1]
  cell cycle arrest: induced cell cycle arrest in the G2/M phase
A-549 cells [2]; A-549 + 2.5 ng/ml TGF-β1, 5 µM and 10 µM, 20 h
  TGF-β1-induced cell motility (wound closure): the wound remained opened
A-549 cells [2]; A-549, 10 and 15 µM
  cell migration (wound closure): significantly reduced the migration of the cells
A-549 cells [3]; A-549, IC90
  Bcl-2 protein level: not changed
A-549 cells [3]; A-549, IC90, 6, 24, 48 h
  Bax protein level: significant increase
A-549 cells [3]; A-549, IC90, 24 and 48 h
  expression of hTERT: significantly decreased
A-549 cells [3]; A-549, IC90, 24 h
  reduction of N-cadherin: 45%
  reduction of vimentin: 43%
A-549 cells [3]; A-549, IC90, 48 h
  reduction of N-cadherin: 50%
  reduction of vimentin: 46%
A-549 cells [3]; A-549 co-treated with 2.5 ng/ml TGF-β1, IC90, 24 h
  suppression of β-catenin, TGF-β1 induced: 31%
A-549 cells [3]; [4]
  reduction of N-cadherin, TGF-β1 induced: 66%
  suppression of β-catenin, TGF-β1 induced: 66%
